# Source: patent US20230147993A1, “THIOPHENE COMPOUNDS WITH CYCLIC AMIDES, AND USES THEREOF” (Capulus Therapeutics, LLC, priority 2019, published 2023)
# Legend:
# [1] = Stability in human liver microsomes; assay type: in vitro ADME; conditions: 60 min at 37° C., NADPH
# Experimental: (§1) Half-life Human Microsomes: Compounds were evaluated for stability in human liver microsomes. A 10 mM stock solution of the compound being evaluated was prepared in DMSO and diluted with water:acetonitrile (1:1) to a concentration of 1 mM. A working concentration of 100 μM was prepared by further dilution with water:acetonitrile (1:1). To make the preincubation mixture, 2.5 μL of the diluted compound was combined with 75 μL of human liver microsomes at 3.33 mg/mL, and 85 μL of 100 mM potassium phosphate buffer, and this mixture was pre-incubated for 10 min at 37° C. To make the 60 minute mixture without cofactor, 32.5 μL of the preincubation mixture was combined with 17.5 μL of 100 mM potassium phosphate buffer and incubated for 60 min at 37° C. To make the 0 min sample with cofactor (NADPH), 16.25 μL of the preincubation mixture was combined with 200 μL of acetonitrile containing internal standard and 8.75 μL of cofactor (NADPH). To make the incubation mixture, 62 μL of cofactor (2.85 mM) was combined with the remaining incubation mixture, and incubated for 60 min at 37° C. To prepare the sample mixture to be evaluated, 25 μL incubation mixture was combined with 200 μL of acetonitrile containing internal standard and vortexed for 5 min at 1200 rpm, then centrifuged for 10 min at 4000 rpm. The supernatant was diluted 2 fold with water and injected on LC-MS/MS. The sample mixture was evaluated by LC-MS/MS using 10 mM ammonium acetate with 0.1% FA as the aqueous mobile phase, and methanol as the organic mobile phase.
# [2] = Stability in mouse liver microsomes; assay type: in vitro ADME
# Experimental: as §1
# Half-life Mouse Microsomes: Compounds were evaluated in mouse liver microsomes following a similar procedure as described above for human liver microsomes. A similar procedure could be used to evaluate compounds in rat liver microsomes.
# [3] = tested on: ACACA; assay: Gene expression in HepG2 cells (qPCR), ACACA; assay type: cell-based; conditions: for 48 hours, normalized to β-Actin, relative to mock or vehicle treated cells (ΔΔCT)
# Experimental: Gene Expression: The effect of selected compounds on the gene expression of HepG2 cells was evaluated. HepG2 cells (P2) were seeded in 24 well plate (80,000 cells/well) for RNA extraction and in a 96 well plate (10,000 cells/well) for Cell Titer Glow (CTG). The media used was DMEM and contained 10% FBS. Each compound was evaluated at […] for 48 hours. Two biological replicates per experimental group were evaluated for RNA. For gene analysis, RNA was harvested with RNEasy kit and 20-100 ng used to synthesize cDNA with random primers. Quantitative PCR was performed on 1 pg to 100 ng cDNA for the following genes: ACACA, ACLY, FASN, LSS, PNPLA3. Gene expression levels were normalized with housekeeping gene, β-Actin, and relative expression levels determined using ΔΔCT method comparing treated to mock or vehicle treated cells as a baseline. “Total” gene expression refers to the average of the values of the 5 genes listed above.
# [4] = tested on: SREBP; assay: Reporter Screening Assay (SRE-luciferase reporter, HepG2); assay type: cell-based; conditions: Homo sapiens, SREBPv1 Reporter cell line HepG2, 24 hours, 0.01 uM to 10 uM, read-out: I: Reporter Screening Assay (Ave EC50 (nM))
# Experimental: Reporter Screening Assay: This assay was used to evaluate the effect on transcriptional activity SREBP of selected compounds using an SRE-luciferase reporter construct. On day 1, 10,000 cells were seeded in a 96 well (white) plate as per the plate map in Growth media without antibiotics. Cells were incubated at 37° C. for 8 hours. After 8 hours, cells were washed with DPBS for complete removal of FBS. DPBS was completely removed and Growth media was replaced with phenol free treatment medium (90 μl) with different FBS concentrations. The cells were then incubated at 37° C. for 24 hours with varying doses (0.01 uM to 10 uM) of compounds. Then a Luciferase assay was performed.
# Reagents for performing Luciferase assay were stored at −20° C. To a tube of lyophilized assay substrate was added 1 mL Substrate Solvent and mixed well. The Substrate tube after reconstitution was covered with aluminum foil so as to keep it protected from light. The assay buffer was thawed to room temperature. To 20 mL Assay Buffer was added 200 µL of reconstituted 100× Substrate and mixed well. The reconstituted substrate as well as the assay solution (buffer + substrate) was protected from light throughout the procedure by keeping it covered with aluminum foil. Using a multi-channel pipette, 100 μL Assay Solution (buffer + substrate) was added directly to each sample well in Plate 1, which was incubated for 30 min (plate was covered with aluminum foil). After 30 min incubation, the plate was read for total luminescence. Each well was read for 2 seconds in a plate luminometer. (Microplate reader Envision Microplate reader from Perkin Elmer). Precaution was taken to incubate plate exactly for 30 min prior to reading on the plate reader.
# Reporter Assay Materials: SREBPv1 Reporter cell line: HepG2-#32251. Growth Medium: MEM (Corning 10-010), 10% FBS, 1% GlutaMax (Invitrogen Catalog #35050061), […] (Invitrogen Catalog #A1113803) and 1% Penicillin-Streptomycin (Pen-Strep). Treatment Media: Phenol-free MEM (Invitrogen Catalog #51200-038) and 1% GlutaMax (Invitrogen Catalog #35050061). Luciferase Assay: LightSwitch Luciferase Assay Kit (Catalog #32032). LDH assay: Pierce LDH Cytotoxicity Assay Kit (Catalog #SD249616).
Compound,percent remaining after 60 min in human liver microsomes [1],percent remaining after 60 min in mouse liver microsomes [2],EC50 [4] [nM],"A: ACACA, effect of compounds on gene expression of HepG2 cells [3]"
"O=C(c1ccc(-c2cc(-c3ccnc(C4CCOCC4)c3)cs2)c(Cl)c1)N1CCC(O)CC1 [Compound I-1628752, (3-chloro-4-(4-(2-(tetrahydro-2H-pyran-4-yl)pyridin-4-yl)thiophen-2-yl)phenyl)(4-hydroxypiperidin-1-yl)methanone]",+ (0-30 = +),+++ (≥60.1 = +++),> 500,+ (>0.751 = +)
"O=C(c1ccc(-c2cc(-c3ccnc(C4(CO)CC4)c3)cs2)c(Cl)c1)N1CCC(O)CC1 [Compound I-1628961, (3-chloro-4-(4-(2-(1-(hydroxymethyl)cyclopropyl)pyridin-4-yl)thiophen-2-yl)phenyl)(4-hydroxypiperidin-1-yl)methanone]",+++ (≥60.1 = +++),+++ (≥60.1 = +++),< 249,++ (0.31-0.7509 = ++)
"O=C(c1ccc(-c2cc(-c3ccnc4c3OCCO4)cs2)c(Cl)c1)N1CCC(O)CC1 [Compound I-1629066, (3-chloro-4-(4-(2,3-dihydro-[1,4]dioxino[2,3-b]pyridin-8-yl)thiophen-2-yl)phenyl)(4-hydroxypiperidin-1-yl)methanone]",++ (30.1-60 = ++),++ (30.1-60 = ++),< 249,++ (0.31-0.7509 = ++)
"O=C(c1ccc(-c2cc(-c3ccnc(OC4CC4)c3)cs2)c(Cl)c1)N1CCC(O)CC1 [Compound I-1629059, (3-chloro-4-(4-(2-cyclopropoxypyridin-4-yl)thiophen-2-yl)phenyl)(4-hydroxypiperidin-1-yl)methanone]",+++ (≥60.1 = +++),+++ (≥60.1 = +++),< 249,++ (0.31-0.7509 = ++)
"O=C(c1ccc(-c2cc(-c3ccnc(C4CCOC4)c3)cs2)c(Cl)c1)N1CCC(O)CC1 (stereo not shown) [Compound I-1628763, (3-chloro-4-(4-(2-(tetrahydrofuran-3-yl)pyridin-4-yl)thiophen-2-yl)phenyl)(4-hydroxypiperidin-1-yl)methanone]",+ (0-30 = +),+++ (≥60.1 = +++),< 249,++ (0.31-0.7509 = ++)

# The next lines start with results.
percent remaining after 60 min in human liver microsomes [1],percent remaining after 60 min in mouse liver microsomes [2],EC50 [4] [nM],Compound,"A: ACACA, effect of compounds on gene expression of HepG2 cells [3]"
+ (0-30 = +),++ (30.1-60 = ++),< 249,"O=C(c1ccc(-c2cc(-c3ccnc4c3NCCO4)cs2)c(Cl)c1)N1CCC(O)CC1 [Compound I-1629084, (3-chloro-4-(4-(2,3-dihydro-1H-pyrido[2,3-b][l,4]oxazin-8-yl)thiophen-2-yl)phenyl)(4-hydroxypiperidin-1-yl)methanone]",++ (0.31-0.7509 = ++)
+ (0-30 = +),+++ (≥60.1 = +++),< 249,"O=C(c1ccc(-c2cc(-c3ccnc(CC4(F)CCC4)c3)cs2)c(Cl)c1)N1CCC(O)CC1 [Compound I-1629078, (3-chloro-4-(4-(2-((1-fluorocyclobutyl)methyl)pyridin-4-yl)thiophen-2-yl)phenyl)(4-hydroxypiperidin-1-yl)methanone]",++ (0.31-0.7509 = ++)
+++ (≥60.1 = +++),+++ (≥60.1 = +++),< 249,"O=C(c1ccc(-c2cc(-c3ccnc(C4(O)CCC4)c3)cs2)c(Cl)c1)N1CCC(O)CC1 [Compound I-1629076, (3-chloro-4-(4-(2-(1-hydroxycyclobutyl)pyridin-4-yl)thiophen-2-yl)phenyl)(4-hydroxypiperidin-1-yl)methanone]",++ (0.31-0.7509 = ++)
+ (0-30 = +),++ (30.1-60 = ++),< 249,"O=C(c1ccc(-c2cc(-c3ccnc(CC4(O)CCC4)c3)cs2)c(Cl)c1)N1CCC(O)CC1 [Compound I-1629077, (3-chloro-4-(4-(2-((1-hydroxycyclobutyl)methyl)pyridin-4-yl)thiophen-2-yl)phenyl)(4-hydroxypiperidin-1-yl)methanone]",++ (0.31-0.7509 = ++)
+++ (≥60.1 = +++),+++ (≥60.1 = +++),250 to 500,"O=C(c1ccc(-c2cc(-c3ccnc(C4(O)COC4)c3)cs2)c(Cl)c1)N1CCC(O)CC1 [Compound I-1629083, (3-chloro-4-(4-(2-(3-hydroxyoxetan-3-yl)pyridin-4-yl)thiophen-2-yl)phenyl)(4-hydroxypiperidin-1-yl)methanone]",+ (>0.751 = +)
